Target: T1, CTSK in U2-OS cells (Homo sapiens, UniProt P43235)
T1 construct: ability to label endogenous CTSK activity in intact cells; endogenous in cells; host or cells: U-2 OS
T1 sequence (P43235 115-329): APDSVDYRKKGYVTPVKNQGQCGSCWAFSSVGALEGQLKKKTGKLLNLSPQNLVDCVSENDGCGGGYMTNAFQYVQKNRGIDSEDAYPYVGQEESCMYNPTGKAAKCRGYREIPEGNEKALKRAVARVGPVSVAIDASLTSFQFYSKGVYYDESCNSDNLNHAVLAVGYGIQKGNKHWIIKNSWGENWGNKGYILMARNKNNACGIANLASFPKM
Assay: Colocalization of ABP with anti-CTSK antibody, confocal microscopy
Format: cell-based
Details: fixed U2-OS cells
Protocol: The probes were then evaluated for their ability to detect active CTSK by fluorescent microscopy. ABPs were incubated with intact U‐2 OS cells, after preincubation with vehicle, a pan cathepsin inhibitor (GB111‐NH2 ),^[ [47] ^] or our selective CTSK inhibitor GD30. Cells were then fixed and imaged by confocal fluorescent microscopy, (Figure 3a). The irreversible GD32 detected active CTSK and was inhibited by both inhibitors, indicating probe specificity. […] However, when live cell imaging was performed without fixation, active CTSK was detected by GD42 although barely, reflecting the probe affinity together with the low level of active CTSK in this cell line (Figure 3b). In order to determine the specificity of GD32’s fluorescence signaling, U2‐OS cells were treated with the probe. […] Additionally, the increased extent of the antibody signal may be attributed to its interaction with the pro‐CTSK, or CTSK that is bound to an endogenous inhibitor, which should not be detected by GD32 since they are not active. Figure 3 CTSK activity detected in intact cells. a) Cultures of U2‐OS cells were grown in 8‐well chambers. […] Red, probe fluorescence, blue, DAPI. page 14: Evaluation of the permeability of GD30, and ODN to intact cells, competition assay: MG63, U87-MG, A549, and U-2 OS cells (5x10^5 cells/well) were seeded in a six-well plate one day before treatment. […]

overlap coefficiency of probe signal (Cy5) with CTSK antibody (Cy3): 0.892
Compound: C#CCNC(=O)[C@H](CC(C)C)N[C@@H](c1ccc(-c2ccc(S(=O)(=O)CCNC(=O)CCCCC[N+]3=C(/C=C/C=C/C=C4/N(C)c5ccc(S(=O)(=O)O)cc5C4(C)C)C(C)(C)c4cc(S(=O)(=O)O)ccc43)cc2)cc1)C(F)(F)F [GD32]

Reference: publication PMC11481179, “Development and Application of Reversible and Irreversible Covalent Probes for Human and Mouse Cathepsin‐K Activity Detection, Revealing Nuclear Activity” (Advanced Science, 2024)
